Experimental data as given in EP3917907B1, “MODULATORS OF POTASSIUM ION CHANNELS AND USES THEREOF” (Universitá Degli Studi Di Salerno, priority 2019, dated 2020).

What was measured:
[1] = Photostability (HPLC, solar simulator irradiation); assay type: physicochemical; details: for Photostability: percentage of degradation after 6 h irradiation with solar simulator, 100 ppm in extracellular solution pH 7.4
Procedure, shortened: (§1)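 Analyte diluted from 1 mg/mL DMSO stock to 100 ppm in extracellular buffer (NaCl, CaCl2, KCl, MgCl2, glucose, HEPES, pH 7.4) and either kept at ambient temperature or irradiated with a solar simulator, each for 6 h. C18 RP-HPLC (40°C) peak areas at 0 and 6 h give % degradation = (Pa0−Pa6)/Pa0 ×100.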

[2] = target: T1, Kv7.2 (Homo sapiens, UniProt O43526); assay: Whole-cell patch-clamp on CHO cells transiently expressing Kv7.2; assay type: cell-based; details: for EC50: Kv7.2, shift in ramp-voltage (ΔV) at 20% of maximal current, 0.01-10 µM; for Idrug/Ictl at 0 mV: ratio of ramp-evoked Kv7.2 current amplitude in presence and absence of drug at 0 mV; for Idrug/Ictl at 0 mV / Idrug/Ictl at -40 mV: CHO cells, mean±SEM, >1 activating, <1 inhibiting; for Idrug/Ictl at -40 mV: ratio of ramp-evoked Kv7.2 current amplitude in presence and absence of drug at -40 mV
T1 construct: expressed in transfected cells; host or cells: CHO cells (ATCC CRL-9618), transient transfection, pcDNA3.1(+)

[3] = system: Kv7.2; assay: as above; assay type: cell-based, human; details: ratio of EC50 values Kv7.3/Kv7.2
[4] = target: T2, Kv7.3 (Homo sapiens, UniProt O43525); assay: Whole-cell patch-clamp on CHO cells transiently expressing Kv7.3; assay type: cell-based; details: shift in ramp-voltage (ΔV) at 20% of maximal current, 0.01-10 µM
T2 construct: expressed in transfected cells; host or cells: CHO cells (ATCC CRL-9618), transient transfection, pcDNA3.1(+)
Method: (§2) According to the experimental protocol, these plasmids were expressed individually or in combination (in particular of Kv7.2 and Kv7.3), together with a plasmid-expressing enhanced green fluorescent protein (Clontech, Palo Alto, CA) used as a transfection marker. Total cDNA in the transfection mixture was kept at 4 µg. CHO cells were grown in 100-mm plastic Petri dishes in Dulbecco's modified Eagle's medium containing 10% fetal bovine serum, nonessential amino acids (0.1 mM), penicillin (50 U/ml), and streptomycin ([…]) in a humidified atmosphere at 37°C with 5% CO2. The cells were plated on glass coverslips coated with poly-L-lysine, and transfected one day after plating with the appropriate cDNA using Lipofectamine 2000 (Life Technologies), according to the manufacturer's protocol.
(§3) Currents from CHO cells were recorded at room temperature (20-22°C) 24 hours after trasfection using the whole-cell configuration of the patch-clamp technique, with glass micropipettes of 3-5 MΩ resistance. During the recording, constant perfusion of extracellular solution was maintained. […] Currents were recorded using an Axopatch-200A amplifier, filtered at 5 kHz, and digitized using a DigiData 1440A (Molecular Devices). […] The effects of drugs were expressed as shift in the ramp-voltage (ΔV) calculated at 20% of the maximal current (Miceli et al, Proc Natl Acad Sci U S A. 2013, 110(11):4386-91). […]

[5] = target: T3, Kv7.4 (Homo sapiens, UniProt P56696); assay: Whole-cell patch-clamp on CHO cells transiently expressing Kv7.4; assay type: cell-based; details: shift in ramp-voltage (ΔV) at 20% of maximal current, 0.01-10 µM
T3 construct: expressed in transfected cells; host or cells: CHO cells (ATCC CRL-9618), transient transfection, pcDNA3.1(+)
Method: as §2, §3

[6] = target: T4, Kv7.1 (Homo sapiens, UniProt P51787); assay: Whole-cell patch-clamp on CHO cells transiently expressing Kv7.1; assay type: cell-based; details: shift in ramp-voltage (ΔV) at 20% of maximal current, 0.01-10 µM
T4 construct: expressed in transfected cells; host or cells: CHO cells (ATCC CRL-9618), transient transfection, pcDNA3.1(+)
Method: as §2
Currents from CHO cells were recorded at room temperature (20-22°C) 24 hours after trasfection using the whole-cell configuration of the patch-clamp technique, with glass micropipettes of 3-5 MΩ resistance. During the recording, constant perfusion of extracellular solution was maintained. The extracellular solution contained (in mM): 138 NaCl, 2 CaCl2, 5.4 KCl, 1 MgCl2, 10 glucose, and 10 HEPES, at pH 7.4, adjusted with NaOH. The pipette (intracellular) solution contained (in mM): 140 KCl, 2 MgCl2, 10 EGTA, 10 HEPES, 5 Mg^2+-ATP, at pH 7.3-7.4, adjusted with KOH. Currents were recorded using an Axopatch-200A amplifier, filtered at 5 kHz, and digitized using a DigiData 1440A (Molecular Devices). The pCLAMP software (version 10.2, Molecular Devices) was used for data acquisition and analysis. To evaluate the activity of exemplary compounds on Kv7.2 (see Table 1), as well as on Kv7.1, Kv7.2/7.3, Kv7.3 and Kv7.4 channels for selected compounds (see Table 2), the cells were clamped at -80 mV and currents were elicited by 3-s voltage ramps from -80 mV to +20 mV in the presence and absence of each compound. […] The effects of drugs were expressed as shift in the ramp-voltage (ΔV) calculated at 20% of the maximal current (Miceli et al, Proc Natl Acad Sci U S A. 2013, 110(11):4386-91). […]

[7] = target: T5, Kv7.2 W236L (Homo sapiens, UniProt O43526, W236L); assay: Whole-cell patch-clamp on CHO cells expressing Kv7.2 W236L mutant channels; assay type: cell-based; details: 10 µM
T5 construct: expressed in transfected cells; host or cells: CHO cells (ATCC CRL-9618), transient transfection, pcDNA3.1(+)
Method: as §2, §3

[8] = Solution stability (HPLC, extracellular solution, ambient temperature); assay type: physicochemical; details: percentage of degradation after 6 h at ambient temperature; 100 ppm in extracellular solution pH 7.4
Procedure, shortened: as §1

[9] = target: T6, Kv7.2/7.3 (Homo sapiens, UniProt O43525+O43526); assay: Whole-cell patch-clamp on CHO cells co-expressing Kv7.2 and Kv7.3; assay type: cell-based; details: for EC50: Kv7.2/7.3, shift in ramp-voltage (ΔV) at 20% of maximal current, 0.01-10 µM; for potency relative to retigabine in increasing Kv7.2/3 currents: from EC50 values of Table 2
T6 construct: expressed in transfected cells; host or cells: CHO cells (ATCC CRL-9618), transient co-transfection, pcDNA3.1(+)
Method: as §2
Currents from CHO cells were recorded at room temperature (20-22°C) 24 hours after trasfection using the whole-cell configuration of the patch-clamp technique, with glass micropipettes of 3-5 MΩ resistance. During the recording, constant perfusion of extracellular solution was maintained. The extracellular solution contained (in mM): 138 NaCl, 2 CaCl2, 5.4 KCl, 1 MgCl2, 10 glucose, and 10 HEPES, at pH 7.4, adjusted with NaOH. The pipette (intracellular) solution contained (in mM): 140 KCl, 2 MgCl2, 10 EGTA, 10 HEPES, 5 Mg^2+-ATP, at pH 7.3-7.4, adjusted with KOH. Currents were recorded using an Axopatch-200A amplifier, filtered at 5 kHz, and digitized using a DigiData 1440A (Molecular Devices). The pCLAMP software (version 10.2, Molecular Devices) was used for data acquisition and analysis. To evaluate the activity of exemplary compounds on Kv7.2 (see Table 1), as well as on Kv7.1, Kv7.2/7.3, Kv7.3 and Kv7.4 channels for selected compounds (see Table 2), the cells were clamped at -80 mV and currents were elicited by 3-s voltage ramps from -80 mV to +20 mV in the presence and absence of each compound. […] The effects of drugs were expressed as shift in the ramp-voltage (ΔV) calculated at 20% of the maximal current (Miceli et al, Proc Natl Acad Sci U S A. 2013, 110(11):4386-91). Curves were fitted using the following equation: y=max/(1+x/EC50)n, where x is the drug concentration, n is the Hill coefficient and max is the maximal value achieved, as previously described (Ambrosino et al, Br J Pharmacol. 2013, 168(6):1430-1444). Data analysis and fit were performed using Sigmaplot (version 12.3).

[10] = cited from earlier work

Structure (SMILES) | Photostability [1] | EC50 [2] [µM] | Idrug/Ictl at 0 mV [2] | Idrug/Ictl at -40 mV [2] | potency in activating Kv7.2 compared to Kv7.3 homomers [3] | EC50 [4] [µM] | EC50 [5] [µM] | EC50 [6] | ratio between current amplitude in the presence and absence of the drug at -40 mV [7] | Solution stability [8] | EC50 [9] [µM] | potency relative to retigabine in increasing Kv7.2/3 currents [9] | drug degraded after exposure to light ([1]; after 6 hours of exposure to light) [%] | fast absorption after oral administration (time after administration) [10] [h]
CCCCCCC(=O)Nc1ccc2c(ccn2Cc2ccc(C(F)(F)F)cc2)c1 [N-(1-(4-(trifluoromethyl)benzyl)-1H-indol-5-yl)heptanamide] | A (degradation lower than 20%) | 0.08 ± 0.04 | 3.24±0.18 | 9.34±0.82 | about 130 fold | 10.5 ± 6 | 0.1 ± 0.02 | Inactive | 1.3±0.3 | A (degradation lower than 20%) | 0.21 ± 0.14 | eight times more potent than retigabine |  | 
O=C(Nc1ccc2c(c1)CCN2Cc1ccc(F)cc1)C1CCCCC1 [N-(1-(4-fluorobenzyl)indolin-5-yl)cyclohexanecarboxamide] | B (20%< degradation<40%) |  | 0.66±0.07 | 1.32±0.21 |  |  |  |  |  | A (degradation lower than 20%) |  |  |  | 
CCCCCCS(=O)(=O)Nc1ccc2c(c1)CCN2Cc1ccc(F)cc1 [N-(1-(4-fluorobenzyl)indolin-5-yl)hexane-1-sulfonamide] | C (degradation > 40%) |  | 2.18±0.09 | 2.48±0.20 |  |  |  |  |  | B (20%< degradation<40%) |  |  |  | 
O=S(=O)(Nc1ccc2c(c1)CCN2CCc1ccc(F)cc1)C1CCCCC1 [N-(1-(4-fluorophenethyl)indolin-5-yl)cyclohexanesulfonamide] | C (degradation > 40%) |  | 1.37±0.17 | 3.24±1.52 |  |  |  |  |  | C (degradation > 40%) |  |  |  | 
COc1ccc(Cn2ccc3cc(NS(=O)(=O)C4CCCCC4)ccc32)cc1 [N-(1-(4-methoxybenzyl)-1H-indol-5-yl)cyclohexanesulfonamide] | A (degradation lower than 20%) |  | 1.63±0.06 | 2.00±0.36 |  |  |  |  |  | A (degradation lower than 20%) |  |  |  | 
COc1ccc(CN2c3ccc(NS(=O)(=O)C4CCCCC4)cc3CC2C)cc1 (stereo not shown) [N-(1-(4-methoxybenzyl)-2-methylindolin-5-yl)cyclohexanesulfonamide] | C (degradation > 40%) |  | 0.92±0.13 | 1.13±0.15 |  |  |  |  |  | B (20%< degradation<40%) |  |  |  | 
COc1ccc(CN2CCc3cc(NS(=O)(=O)C4CCCCC4)ccc32)cc1 [N-(1-(4-methoxybenzyl)indolin-5-yl)cyclohexanesulfonamide] | C (degradation > 40%) |  | 4.24±0.83 | 6.43±1.51 |  |  |  |  |  | C (degradation > 40%) |  |  |  | 
CCCCCCC(=O)Nc1ccc(NCc2ccc(C(F)(F)F)cc2)c(F)c1N [N-(2-amino-3-fluoro-4-((4-(trifluoromethyl)benzyl)amino)phenyl)heptanamide] | A (degradation lower than 20%) |  | 1.94±0.12 | 5.76±1.28 |  |  |  |  |  | A (degradation lower than 20%) |  |  |  | 
CCCCCCC(=O)Nc1ccc(NCc2ccc(OC(F)(F)F)cc2)cc1N [N-(2-amino-4-((4-(trifluoromethoxy)benzyl)amino)phenyl)heptanamide] | B (20%< degradation<40%) |  | 2.05±0.56 | 12.4±2.05 |  |  |  |  |  | A (degradation lower than 20%) |  |  |  | 
Nc1cc(NCc2ccc(C(F)(F)F)cc2)ccc1NS(=O)(=O)C1CCCCC1 [N-(2-amino-4-((4-(trifluoromethyl)benzyl)amino)phenyl)cyclohexanesulfonamide] | C (degradation > 40%) |  | 0.19±0.1 | 1.5±0.2 |  |  |  |  |  | C (degradation > 40%) |  |  |  | 
CCCCCCC(=O)Nc1ccc(NCc2ccc(C(F)(F)F)cc2)cc1N [N-(2-amino-4-((4-(trifluoromethyl)benzyl)amino)phenyl)heptanamide] | B (20%< degradation<40%) |  | 2.55±0.56 | 16.90±3.33 |  |  |  | Inactive |  | A (degradation lower than 20%) | 0.2 ± 0.1 | eight times more potent than retigabine |  | 
CCCCCCC(=O)Nc1ccc(NCc2ccc(F)cc2)c(F)c1 [N-(3-fluoro-4-((4-fluorobenzyl)amino)phenyl)heptanamide] | A (degradation lower than 20%) |  | 3.30±0.40 | 8.85±1.17 |  |  |  |  |  | A (degradation lower than 20%) |  |  |  | 
CCOC(=O)Nc1ccc(NCc2ccc(F)cc2)cc1N [Retigabine, reference compound] | C (degradation > 40%) | 0.93 ± 0.43 | 1.95±0.12 | 6.20±1.03 | 4 fold | 3.9 ± 1.7 | 1.98 ± 0.84 | Inactive | 1.2±0.1 | A (degradation lower than 20%) | 1.72 ± 0.41 |  | > 40 | 1.5 to 2.0
CCOC(=O)Nc1ccc2c(c1)CCN2Cc1ccc(F)cc1 [ethyl (1-(4-fluorobenzyl)indolin-5-yl)carbamate] | C (degradation > 40%) |  | 1.26±0.13 | 2.01±0.58 |  |  |  |  |  | A (degradation lower than 20%) |  |  |  | 
